The target in one data set is T1, PDIA4 (Homo sapiens, UniProt P13667).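 Further: enzymatic activity of PDIA4 read as absorbance at 595 nm, inhibition given as percent decrease relative to vehicle-treated control.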
T1 sequence (P13667 21-645): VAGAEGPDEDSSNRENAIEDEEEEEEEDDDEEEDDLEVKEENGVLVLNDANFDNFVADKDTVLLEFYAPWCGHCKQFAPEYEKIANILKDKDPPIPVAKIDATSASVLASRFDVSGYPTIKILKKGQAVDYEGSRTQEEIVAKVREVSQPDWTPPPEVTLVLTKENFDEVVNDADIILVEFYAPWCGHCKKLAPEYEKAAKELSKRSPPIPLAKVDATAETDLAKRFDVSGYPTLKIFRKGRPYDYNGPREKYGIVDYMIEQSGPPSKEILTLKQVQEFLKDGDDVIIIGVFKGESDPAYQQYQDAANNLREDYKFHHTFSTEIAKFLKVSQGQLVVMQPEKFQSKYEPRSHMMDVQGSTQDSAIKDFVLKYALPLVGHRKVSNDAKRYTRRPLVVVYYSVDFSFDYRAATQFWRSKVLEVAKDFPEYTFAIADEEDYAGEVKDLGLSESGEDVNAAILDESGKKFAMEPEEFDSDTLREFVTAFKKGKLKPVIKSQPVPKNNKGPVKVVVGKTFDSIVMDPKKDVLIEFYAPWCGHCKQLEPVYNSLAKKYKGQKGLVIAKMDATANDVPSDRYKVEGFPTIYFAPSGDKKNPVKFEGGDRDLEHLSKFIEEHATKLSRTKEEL
In words: biochemical.

Data set [1] has as its system Min6 cells. In words: Glucose-stimulated insulin secretion in Min6 cells (insulin ELISA). Format: cell-based, mouse. Conditions: for insulin secretion in β-cells, in words: Min6 β-cells. Here is the method: (§1) (A) Effect of drug candidates on insulin secretion in β-cells. Min6 cells were incubated in serum-free oxygen-saturated Krebs-Ringer bicarbonate (KRB) buffer containing high glucose (16.7 mM), CCF642 and drug candidates for 30 min. The supernatants were collected for insulin ELISA assay. (B) Min6 cells were incubated with PBS, CCF642 and drug candidates, respectively, for 24 h. Following PBS washing, WST-1 was added into each well for additional 20 min incubation.
Min6 cells were grown in complete Dulbecco's modified Eagle medium (DMEM) medium containing 10% fetal bovine serum, 100 units/ml penicillin and 100 µg/ml streptomycin in a 5% CO2 incubator in the presence of 3.3 mM glucose unless indicated otherwise. Min6 cells were pre-incubated in serum-free oxygen-saturated Krebs-Ringer bicarbonate (KRB) buffer containing 3.3 mM glucose at 37° C. for 30 min. The cells (7.5×10^4) were then incubated with KRB buffer containing high glucose (16.7 mM) or low glucose (3.3 mM) for an additional 30 min. The supernatants were collected for insulin ELISA assay.

A short description of data set [2]: Cell viability test (WST-1) in Min6 cells. Format: cell-based, mouse. Conditions: mouse. The protocol: as §1
(§2) Min6 cells were cultured at 37° C. in complete medium. Cell cytotoxicity was determined using WST-1 (4-[3-(4-Iodophenyl)-2-(4-nitrophenyl)-2H-5-tetrazolio]-1,3-benzene Disulfonate) according to the manutkturet's guidelines. Briefly, the cells were grown in a […] containing complete medium in the presence of the indicated compounds for 24 h. Following PBS washing, WST-1 was added into each well for additional 20 min incubation. After removing the medium, the cells in the plate were measured with a SpectraMax i3x reader at 450 nm.

The subject of data set [3] is Min6 cells. In words: Cell viability test (WST-1) in Min6 cells. It counts as cell-based, mouse. The protocol:
as §1, §2

Another data set concerns db/db mice. Nature of the data set: Anti-diabetes effect in db/db mice (blood glucose). Format: in vivo, mouse. Conditions: CPD 8 2.5 mg/kg, metformin 60 mg/kg; for fasting blood glucose (FBG) / postprandial blood glucose (PBG): sitagliptin 30 mg/kg. The protocol:
(A-B) New-onset diabetes, Lepr^db/db mice, are grouped and treated with PBS vehicle (CTR), sitagliptin (STG, 30 Mg/kg), CPD8 (2.5 mg/kg), and a combination of CPD8 (2.5 mg/kg) and metformin […]) (CPD8+Met) for the indicated time. Fasting blood glucose (FBG (A)) and postprandial blood glucose (PBG (B)) of the mice were monitored. The value (n) is number of mice indicated in parentheses.
Moreover, we examined the in vivo anti-diabetes effect of CPD 8, one of drug candidates for Pdia4 inhibition, in db/db mice, a mouse model of type 2 diabetes. […] PBG in db/db mice (FIG. 4B).

Setting [4] is: Min6, a mouse β-cells, read-out: EC50 values, insulin-releasing action.
Setting [5] is: Mus musculus, 0.5 h, Table 5, insulin secretion, Min6 cells, high glucose (16.7 mM), 30 min, read-out: EC50.
[6] abbreviates: Table 5, 24 h, WST-1, read-out: CC50.

The values that follow come from patent US12605353B2, “PDIA4 inhibitors and use thereof for inhibiting β-cell pathogenesis and treating diabetes” (Academia Sinica, priority 2019, dated 2026).

Like-named read-outs stand apart in the source and are kept apart here.

Protocol for PDIA4: Recombinant PDI proteins PDIA4 (23 pM) was incubated with insulin (0.2 mM) and DTT (0.1 mM) in the presence of vehicle and compounds at the indicated doses for 30 min at 25° C. The mixture was, measured using a SpectraMax i3x reader at 595 nm based on the manufacturer's instructions (Molecular device, CA, USA). Inhibition of the enzymatic activity PDIA4 is calculated by the formula, 100%×(OD595 of vehicle−OD595 of CP)/(OD595 of vehicle) as published previously.

Compound `C#CC(=O)Nc1cc(OC)c(OCCCN(C(=O)C#C)C(=O)Cc2cccc(C(F)(F)F)c2)cc1C(=O)OC` [58t, methyl 4-methoxy-2-propiolamido-5-(3-(N-(2-(3-(trifluoromethyl)phenyl)acetyl)propiolamido)propoxy)benzoate] showed an IC50 against PDIA4 of 0.8 µM. Besides, the concentration for a half-maximal effect (EC50) with Min6 cells [1] (setting [4]) is 0.02 µM; in the data set on Min6 cells [1] (setting [5]) it was 0.03 µM. In the data set with Min6 cells [1], the “insulin secretion in β-cells, in words” value is “could augment insulin secretion”. Besides, in the data set with Min6 cells [1] (Table 5, Min6 cells), the “SI (CC50/EC50)” value is listed as above 3333. The CC50 at 24 h in data set [2] (setting [6]) was above 100 µM; in data set [2] (read-out: CC50 values), 64.9 µM.
Regarding `C#CC(=O)Nc1cc(OC)c(OCCCN(C(=O)C#C)C(=O)c2cnco2)cc1C(=O)OC` [58v, methyl 4-methoxy-2-propiolamido-5-(3-(N-propioloyloxazole-5-carboxamido)propoxy)benzoate], the IC50 at PDIA4 turned out to be 0.3 µM. In addition, the EC50 in the data set on Min6 cells [1] (setting [4]) and in the data set with Min6 cells [1] (setting [5]) was 0.005 µM each time. Moreover, the “insulin secretion in β-cells, in words” value in the data set on Min6 cells [1] was “could augment insulin secretion”. Also, in the data set on Min6 cells [1] (Table 5, Min6 cells), the “SI (CC50/EC50)” value is on record as above 20000. For the same compound, the CC50 at 24 h in data set [2] (setting [6]) and in data set [2] (read-out: CC50 values) was above 100 µM each time.
With `COc1ccc(N2C(=O)/C(=C\c3ccc([N+](=O)[O-])s3)SC2=S)cc1` [CCF642, reference compound], the EC50 in the data set with Min6 cells [1] (setting [4]) was found to be 0.25 µM. Further, in the data set on Min6 cells [1], the “insulin secretion in β-cells, in words” value was “could augment insulin secretion”. For the same compound, in the data set with Min6 cells [1] (Table 5, Min6 cells), the “SI (CC50/EC50)” value came to 95.6. Also, the CC50 in the data set with Min6 cells [3] (setting [6]) and with Min6 cells [3] (read-out: CC50 values) was 23.9 µM throughout.
Compound `C#CC(=O)Nc1cc(OC)c(OC)cc1C(=O)O` [CPD 8, 4,5-dimethoxy-2-propiolamidobenzoic acid] gave an IC50 on PDIA4 of 4 µM. Further, in the data set on db/db mice, the “reversal of type 2 diabetes” value is listed as “can reverse type 2 diabetes”, the “fasting blood glucose (FBG)” value is “significantly decreased” and the “postprandial blood glucose (PBG)” value is “significantly decreased”. Further, the EC50 in the data set on Min6 cells [1] (setting [4]) stood at 0.06 µM. The “insulin secretion in β-cells, in words” value in the data set with Min6 cells [1] was “could augment insulin secretion”. In the data set with Min6 cells [1] (setting [5]), the EC50 is 0.06 µM. Further, the “SI (CC50/EC50)” value in the data set on Min6 cells [1] (Table 5, Min6 cells) is on record as above 1666.7. In addition, the CC50 at 24 h in data set [2] (setting [6]) was above 100 µM. The CC50 at 24 h in data set [2] (read-out: CC50 values) was above 100 µM.
As to `CC#CC#CC#CC#CCCC(CO)O[C@@H]1O[C@H](CO)[C@@H](O)[C@H](O)[C@H]1O` (some centres unmarked) [CPD P1, cytopiloyne, reference compound], the IC50 against PDIA4 amounted to 210 µM. For the same compound, the EC50 with Min6 cells [1] (setting [4]) and in the data set with Min6 cells [1] (setting [5]) was 1.55 µM throughout. The “insulin secretion in β-cells, in words” value in the data set with Min6 cells [1] is “could augment insulin secretion”. Also, the “SI (CC50/EC50)” value with Min6 cells [1] (Table 5, Min6 cells) is above 64.5. For the same compound, the CC50 at 24 h in data set [2] (setting [6]) and in data set [2] (read-out: CC50 values) was above 100 µM in each case.
Consider `N[C@@H](CC(=O)N1CCn2c(nnc2C(F)(F)F)C1)Cc1cc(F)c(F)cc1F` [sitagliptin, reference compound], for which, in the data set with db/db mice, the “fasting blood glucose (FBG)” value was “significantly reduced” and the “postprandial blood glucose (PBG)” value was “significantly reduced”.
